Like-named read-outs stand apart in the source and are kept apart here. Bridge positions count the residues as written; N and C are the ends. Square brackets hold non-standard residues; d marks the D form. Ends that are not written are not given here. Peptide text beside a SMILES is read from it. R8 = C=CCCCCCC[C@@](C)(N)C(=O)O; S5 = C=CCCC[C@](C)(N)C(=O)O
How the values were obtained:
Assay in all cases: Viability assay (MTT, Alamar Blue, hexosaminidase), 72 h
Format in all cases: cell-based
[1] = molecular target: HL-60, promyeloblast (acute myelocytic leukemia, AML)
Protocol: HL-60, promyeloblast (acute myelocytic leukemia, AML), ECACC: 98070106
(§1) Cell lines A549, MCF-7 and RAMOS were cultured in incubator under CO2 (6%) at 37° C. in DMEM high glucose (Dulbecco's Modified Eagle Solution, Gibco-BRL 31966-21) medium with 10% fetal bovine serum inactivated (FBS) (Gibco-BRL 10106-169). Cell lines HL-60 and MM.1S were cultured in incubator at 37° C. in RPMI-1640 (Sigma R8758) medium with 10% of fetal bovine serum inactivated (FBS) and 2 mM glutamine (Sigma G7513). Cell lines BJ were cultured in incubator under CO2 (6%) at 37° C. in Eagle's Minimum Essential Medium (Sigma, M-2279) with 10% fetal bovine serum inactivated (FBS) (Gibco-BRL 10106-169).
(§2) During the amplification step and the assays adherent cells were rinsed with DPBS (Dulbecco's Phosphate Buffered Saline, Sigma D1283) three times and afterward treated for 5 minutes with trypsin ([…]) (Gibco-BRL, 15400054) in solution of DPBS at 37° C., and, once detached, transferred in the culturing medium. No-adherent cells were centrifuged and transferred in the culturing medium. Cells were counted in a Neubauer chamber after labelling with Tripan-Blue.
(§3) A549, MCF-7 and JB cells were seeded at a density of 5000 cells/well and HL-60, MM.1S and Ramos at 10000 cells/well in 100 μl of medium in 96 well plates. After 24 h, the compounds to be tested were added to calculate the dose/response curve at the starting concentration of 100 μM with serial dilutions (1:1). Controls are the untreated cells. Each experiment was performed in triplicate.
(§4) Cells were incubated during 72 h in incubator under CO2 atmosphere at 37° C. Cell viability was measured by means of MTT (3-(4,5-dimethylthiazol-2-yl)-2.5-diphenyltetrazolium bromide) assay, Alamar Blue® (Biosource DAL1100) and Hexosaminidase activity test, consecutively, following manufacturer instructions.
(§5) MTT: 1. Stock solution of MTT (475989 Calbiochem) was 5 mg/ml in PBS 1×. As negative control (experiment noise) 3 wells were treated with 20 μl/well of a solution of SDS 10% in H2O. The same control was used for Alamar Blue/Hexosaminidase. 10 μl/well of MTT solution were added and the plate was incubated for 3-4 hr. The medium was discarded and 100 μl of extracting buffer (PBS 1×, 15% SDS, 50% […] N,N-Dimethylformamide, pH 4.7) were added to each well. Plates were incubated for 16 h at room temperature under orbital shaking. Absorbance at 570 nm was finally measured.
(§6) Alamar Blue: 10 μl Alamar Blue solution was added to each well and the plates were incubated for […] in the incubator. Fluorescence ratio at 535/590 (excitation/emission) was measured in Cytofluor (Millipore) fluorimeter. Blank control was determined by lysis of untreated cells with con 2% of Triton X100, right before adding Alamar Blue solution.
(§7) Hexosaminidase activity test: after Alamar Blue lecture, medium was discarded and plates were rinsed once with PBS. 60 μl hexosaminidase substrate (p-nitrophenol-N-acetyl-beta-D-glucosamide 7.5 mM [Sigma N-9376], sodium citrate 0.1 M, pH 5.0, 0.25% Triton X-100) was added to each well and the plates were incubated at 37° C. for 2-5 h, according to the cell type (hexosaminidase activity changes according to the cell type). […] Blank control was the same as described before.
(§8) Data analysis was performed calculating the percentage of cell viability normalized vs. the values of negative control, which was considered equal to 100%. The dose/response curve was fitted through the sigmoidal equation dose-response (variable slope) and the EC50 values were calculated as follow: Y=Bottom+(Top−Bottom)/(1+10^{[(Log EC50−X)*HillSlope]},

[2] = molecular target: A549, epithelial (lung cancer)
Protocol: A549, epithelial (lung cancer), ATCC:CCL-185
as §1, §2, §3, §4, §5, §6, §7, §8

[3] = molecular target: MM.1S, B Lymphoblast (multiple myeloma)
Protocol: MM.1S, B Lymphoblast (multiple myeloma), ATCC: CRL-2974
as §1, §2, §3, §4, §5, §6, §7, §8

[4] = molecular target: MCF-7, epithelial (breast cancer)
Protocol: MCF-7, epithelial (breast cancer), ECACC: 86012803
as §1, §2, §3, §4, §5, §6, §7, §8

[5] = molecular target: RAMOS, B lymphocyte (Burkitt's Lymphoma)
Protocol: RAMOS, B lymphocyte (Burkitt's Lymphoma), ATCC: CRL-1596
as §1, §2, §3, §4, §5, §6, §7, §8

| Compound | EC50 ([1]; HL-60 cells, read-out: EC50) [µM] | EC50 ([2]; A549 cells, read-out: EC50) [µM] | EC50 ([3]; MM.1S cells, read-out: EC50) [µM] | EC50 ([4]; MCF7 cells, read-out: EC50) [µM] | EC50 ([5]; Ramos cells, read-out: EC50) [µM] | EC50 [1] [µM] | EC50 [2] [µM] | EC50 [3] [µM] | EC50 [4] [µM] | EC50 [5] [µM] |
| --- | --- | --- | --- | --- | --- | --- | --- | --- | --- | --- |
| RQRRNELKRXFFALRDX-NH2 [IDP-S12] | 23 ± 1 | 50 | 22 ± 2 | 42 ± 2 | 52 ± 2 |  |  |  |  |  |
| RQRRNXLKRAFAXLRD-OH [IDP-S311] |  |  | ~15 |  |  |  |  |  |  |  |
| CC[C@H](C)[C@H](NC(=O)[C@]1(C)CCC/C=C\CCCCCC[C@@](C)(NC(=O)[C@@H](NC(=O)[C@@H](NC(=O)[C@H](CCCCN)NC(=O)[C@@H]2CCCN2C(=O)[C@H](C)N)C(C)C)C(C)C)C(=O)N[C@@H](CC(C)C)C(=O)N[C@@H](CCCCN)C(=O)N[C@@H](CCCCN)C(=O)N[C@@H](C)C(=O)N[C@@H]([C@@H](C)O)C(=O)N[C@@H](C)C(=O)N1)C(=O)N[C@@H](CC(C)C)C(=O)N[C@@H](CO)C(N)=O [IDP-S22, APKVVXLKKATAXILS] (H-APKVV[R8]LKKATA[S5]ILS-NH2; staple (Z) 6-13; N-terminus and C-terminus assumed) |  |  |  |  |  | > 100 | > 100 | > 100 | > 100 | > 100 |
| CC(C)C[C@@H]1NC(=O)[C@H](C)NC(=O)[C@H](Cc2ccccc2)NC(=O)[C@H](Cc2ccccc2)NC(=O)[C@](C)(NC(=O)[C@H](CCCNC(=N)N)NC(=O)[C@H](CCCCN)NC(=O)[C@H](CC(C)C)NC(=O)[C@H](CCC(=O)O)NC(=O)[C@@H](N)CC(N)=O)CCCCCC/C=C\CCC[C@@](C)(C(N)=O)NC(=O)[C@H](CC(=O)O)NC(=O)[C@H](CCCNC(=N)N)NC1=O [IDP-S13, NELKRXFFALRDX-NH2] (H-NELKR[R8]FFALRD[S5]-NH2; staple (Z) 6-13; N-terminus assumed) | > 100 |  | > 100 | > 100 | > 100 |  |  |  |  |  |
| RQRRNELKRSFFALRDQ [IDP-L11, RQRRNELKRSFFALRDQ] |  |  |  |  |  | > 100 |  | > 100 | > 100 | > 100 |
| CC[C@H](C)[C@H](NC(=O)[C@@H](NC(=O)[C@@H](NC(=O)[C@H](CCCCN)NC(=O)[C@@H]1CCCN1C(=O)[C@H](C)N)C(C)C)C(C)C)C(=O)N[C@]1(C)CCCCCC/C=C\CCC[C@@](C)(C(=O)N[C@@H](CC(C)C)C(=O)N[C@@H](CO)C(N)=O)NC(=O)[C@H](Cc2ccc(O)cc2)NC(=O)[C@H](C)NC(=O)[C@H]([C@@H](C)O)NC(=O)[C@H](C)NC(=O)[C@H](CCCCN)NC(=O)[C@H](CCCCN)NC1=O [IDP-S17, APKVVIXKKATAYXLS] (H-APKVVI[R8]KKATAY[S5]LS-NH2; staple (Z) 7-14; N-terminus and C-terminus assumed) |  |  |  |  |  | > 100 | > 100 | > 100 | > 100 | > 100 |
| APKXVIFKKAXAYILS-OH [IDP-S14] | 7.8 ± 0.4 | 9.1 ± 0.8 | 6.6 ± 0.9 |  | 55 |  |  |  |  |  |
| QRRNXLKRAFAXLRD-OH [IDP-S312] |  |  | ~25 |  |  |  |  |  |  |  |
| CC(C)C[C@@H]1NC(=O)[C@H](C)NC(=O)[C@H](C)NC(=O)[C@H](Cc2ccccc2)NC(=O)[C@](C)(NC(=O)[C@H](CCCNC(=N)N)NC(=O)[C@H](CCCCN)NC(=O)[C@H](CC(C)C)NC(=O)[C@H](CCC(=O)O)NC(=O)[C@H](CC(N)=O)NC(=O)[C@H](CCCNC(=N)N)NC(=O)[C@H](CCCNC(=N)N)NC(=O)[C@H](CCC(N)=O)NC(=O)[C@@H](N)CCCNC(=N)N)CCCCCC/C=C\CCC[C@@](C)(C(N)=O)NC(=O)[C@H](CC(=O)O)NC(=O)[C@H](CCCNC(=N)N)NC1=O [IDP-S04, RQRRNELKRXFAALRDX-H2] (H-RQRRNELKR[R8]FAALRD[S5]-NH2; staple (Z) 10-17; N-terminus assumed) | ~24 |  | 19 ± 1 | ~60 | ~64 |  |  |  |  |  |
| CCc1ccc(/C=C2/SC(=S)NC2=O)cc1 [10058-F4, reference compound] | 54 ± 2 | > 100 | > 100 | ~52 | ~57 |  |  |  |  |  |
| CC[C@H](C)[C@@H]1NC(=O)[C@H](Cc2ccc(O)cc2)NC(=O)[C@H](C)NC(=O)[C@H]([C@@H](C)O)NC(=O)[C@H](C)NC(=O)[C@H](CCCCN)NC(=O)[C@](C)(NC(=O)[C@H](CC(C)C)NC(=O)[C@@H](NC(=O)[C@@H](NC(=O)[C@@H](NC(=O)[C@H](CCCCN)NC(=O)[C@@H]2CCCN2C(=O)[C@H](C)N)C(C)C)C(C)C)[C@@H](C)CC)CCCCCC/C=C\CCC[C@@](C)(C(=O)N[C@@H](CO)C(N)=O)NC1=O [IDP-S18, APKVVILXKATAYIXS] (H-APKVVIL[R8]KATAYI[S5]S-NH2; staple (Z) 8-15; N-terminus and C-terminus assumed) |  |  |  |  |  | > 100 | > 100 | > 100 | > 100 | > 100 |
